# According to patent publication US9556202B2, “Sulfonamide derivatives and methods of use thereof for improving the pharmacokinetics of a drug” (MERCK SHARP & DOHME CORP., priority 2012, dated 2017):
# Molecular target: T1, human CYP11B2 (Homo sapiens, UniProt P19099)
# T1 construct: expressed in transfected cells
# T1 sequence (P19099 25-503): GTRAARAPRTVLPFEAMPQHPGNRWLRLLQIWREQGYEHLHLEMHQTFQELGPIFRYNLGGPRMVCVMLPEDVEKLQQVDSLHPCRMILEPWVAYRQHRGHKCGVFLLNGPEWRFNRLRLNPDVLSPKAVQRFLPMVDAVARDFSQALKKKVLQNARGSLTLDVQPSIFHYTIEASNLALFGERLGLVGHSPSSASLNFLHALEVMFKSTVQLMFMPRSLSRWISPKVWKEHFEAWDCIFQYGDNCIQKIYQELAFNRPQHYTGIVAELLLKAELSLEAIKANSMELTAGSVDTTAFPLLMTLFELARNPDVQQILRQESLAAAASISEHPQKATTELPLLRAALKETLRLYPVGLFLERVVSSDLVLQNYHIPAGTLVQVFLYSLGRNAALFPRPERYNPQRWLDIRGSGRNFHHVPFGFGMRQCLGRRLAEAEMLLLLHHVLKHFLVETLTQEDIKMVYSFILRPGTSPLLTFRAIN
# Test: IC50 vs CYP11B2 by aldosterone synthesis in V79 cells (HTRF)
# Format: cell-based
# Conditions: V79 cells expressing human CYP11B2, 750 nM DOC, test conc. 0.5-10000 nM, unit inferred
# Description: Determination of IC50 Vs CYP11B1/CYP11B2 by Measurement of Cortisol/Aldosterone Synthesis
# This assay was performed in a standard 384-well plate design using cultured V79 cells stably expressing human CYP11B1 or human CYP11B2. Test compounds at 10 concentrations (for example, 10000, 3333.3, 1111.1, 370.4, 123.5, 41.2, 13.7, 4.6, 1.5 and 0.5 nM) were added in 384-well plate after the cell-seeding procedure. The incubation substrate contains 1500 nM RSS for CYP11B1 assay/750 nM DOC for CYP11B2 assay. The Cortisol/Aldosterone production of cell culture supernatant was determined by Cortisol/Aldosterone HTRF kit after for about 15 hours incubation at RT (protect from light). IC50 values were calculated from the percent inhibition observed for each test compound at 10 concentrations.
# The assay plate was read using Envision (Perkin Elmer, Waltham, Mass.) at 665 nm and 590 nm (using Filter Barcode of 217#, 205#; Mirror Barcode of 446#).
# Data are analyzed using Assay Data Analyzer. All ratio data (665 nm/590 nm) are back calculated according to the standard curve, resulting in Cortisol/Aldosterone concentrations. IC50 values are reported as the Inflection Point (IP) of a four parameter fit of the titration data.
# The following equation was used to calculate the % inhibition: % Activity=100×{1−(Sample_back calculated Cortisol/Aldosterone concentration−LC_back calculated Cortisol/Aldosterone concentration)/(HC_back calculated Cortisol/Aldosterone concentration−LC_back calculated Cortisol/Aldosterone concentration)} Curve Fitting: Four Parameter Logistic: […]
row,SMILES,IC50
1,C[C@H](c1ccc(F)cc1)n1cncc1CN1CCN(S(=O)(=O)c2cnc(N3CCC(S(C)(=O)=O)C3)s2)CC1 (stereo partly shown) [Compound 7],16300 nM

# Molecular target: T2, CYP3A4 (Homo sapiens, UniProt P08684)
# T2 construct: 0.01 mg/mL protein human liver microsomes (BD Gentest); tissue BD Gentest; host or cells: human liver microsomes
# T2 sequence (P08684 2-503): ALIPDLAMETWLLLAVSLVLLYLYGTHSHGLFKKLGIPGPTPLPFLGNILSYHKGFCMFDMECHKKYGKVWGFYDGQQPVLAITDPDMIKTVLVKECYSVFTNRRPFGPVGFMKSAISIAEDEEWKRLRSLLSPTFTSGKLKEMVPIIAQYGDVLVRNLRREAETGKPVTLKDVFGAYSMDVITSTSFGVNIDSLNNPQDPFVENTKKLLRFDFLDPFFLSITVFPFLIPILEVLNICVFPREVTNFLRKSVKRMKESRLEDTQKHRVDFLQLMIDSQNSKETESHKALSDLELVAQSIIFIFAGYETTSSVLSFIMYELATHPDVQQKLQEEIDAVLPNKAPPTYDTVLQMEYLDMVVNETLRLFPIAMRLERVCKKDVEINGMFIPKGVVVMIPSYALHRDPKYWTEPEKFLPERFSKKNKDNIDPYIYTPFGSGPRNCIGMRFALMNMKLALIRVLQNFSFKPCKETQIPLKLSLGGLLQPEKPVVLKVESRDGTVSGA
# Test: IC50 vs CYP3A by inhibition of lopinavir metabolism in human liver microsomes
# Format: biochemical
# Conditions: human liver microsomes 0.01 mg/mL, 1.5 μM lopinavir, 8 min 37° C.; test conc. e.g. 0.098-100 nM; unit inferred; read-out: 3A4(LPV)
# Description: Determination of IC50 Vs CYP3A by Measurement of Inhibition of Lopinavir Metabolism
# This assay was performed in a standard 96-well plate design. IC50 values were calculated from the percent inhibition observed for each test compound at 6 concentrations (for example, 0.098, 0.391, 1.56, 6.25, 25 and 100 nM). The incubation substrate mix contains 1.5 μM lopinavir, 0.01 mg/mL protein human liver microsomes (BD Gentest), 1 mM NAPDH, 3.3 mM MgCl2 and 100 mM potassium phosphate buffer (pH 7.4). The production of the sum of three hydroxylated metabolites (M2: 6-hydroxy lopinavir, M3: 4-hydroxy lopinavir, M4: 4-hydroxy lopinavir (epimer of M3), Kumar et al., 1999) was determined after incubation for 8 min at 37° C. Quantitation of the metabolite peak area ratio against an internal standard (tolbutamide) was determined by LC/MS/MS analysis following acetonitrile treatment of the incubations.
# Samples were analyzed in the MRM mode with a SCIEX API-4000 mass spectrometer (Applied Biosystems, Foster City, Calif.), with a Shimadzu LC-20 AD pump (Shimadzu corporation, Kyoto, JP) and a CTC PAL autosampler (Agilent Technologies, Switzerland). A Phenomenex, Luna, 5 μm, 100 A, 2.00×30 mm HPLC column was used for the separation. The mobile phases were: (A) 0.1% formic acid in water and (B) 0.1% formic acid in acetonitrile. The binary gradient was as follows.
# The peak area ratio of the analyte to the internal standard was used to quantify the metabolite. The values of peak area ratios in the presence of test compound were compared to those of maximum or minimum controls and were expressed as % inhibition by interpolating between the maximum and minimum peak area ratios. Incubations with no inhibitor were defined as the maxima and with 5 μM ketoconazole were defined as the minima.
# The following equation was used to calculate the % inhibition: [1−[(X−Low control)/(High control−Low control)]]*100
# For the IC50 calculation, SigmaPlot was used to plot the mean % inhibition versus the test compound concentrations and for non-linear regression analysis of the data. Depending on the range of data points defining the inhibition curve, the data may have been fit to the 4-parameter logistic equation.
row,SMILES,IC50
1,C[C@H](c1ccc(F)cc1)n1cncc1CN1CCN(S(=O)(=O)c2cnc(N3CCNCC3)s2)CC1 [Compound 1],1.4 nM
2,C[C@H](c1ccc(F)cc1)n1cncc1CN1CCN(S(=O)(=O)c2cnc(N3CCN4C(=O)OC[C@H]4C3)s2)CC1 [Compound 26],1.5 nM
3,C[C@H](c1ccc(F)cc1)n1cncc1CN1CCN(S(=O)(=O)c2cnc(N3CCN4C[C@H](O)C[C@@H]4C3)s2)CC1 [Compound 6],1.4 nM
4,C[C@H](c1ccc(F)cc1)n1cncc1CN1CCN(S(=O)(=O)c2cnc(N3CCN(C4CCN(C)CC4)CC3)s2)CC1 [Compound 9],2.8 nM
5,C[C@H](c1ccc(F)cc1)n1cncc1CN1CCN(S(=O)(=O)c2cnc(N3CC[C@@H]4OCCN[C@H]4C3)s2)CC1 [Compound 13],1.4 nM
6,C[C@H](c1ccc(F)cc1)n1cncc1CN1CCN(S(=O)(=O)c2cnc(NCC(F)CN)s2)CC1 (stereo partly shown) [Compound 17],1.7 nM
7,C[C@H](c1ccc(F)cc1)n1cncc1CN1CCN(S(=O)(=O)c2cnc(N3CC[C@@H](N)[C@H](F)C3)s2)CC1 [Compound 12],1 nM
8,C[C@H](c1ccc(F)cc1)n1cncc1C1C(=O)OCC2CN(S(=O)(=O)c3cnc(Nc4ccc(C(F)(F)F)cn4)s3)CCN21 (stereo partly shown) [Compound 39],8 nM
9,C[C@H](c1ccc(F)cc1)n1cncc1CN1CCN(S(=O)(=O)c2cnc(N3CCN4C[C@H](O)C[C@H]4C3=O)s2)CC1 [Compound 18],1.1 nM
10,CC1CN(c2ncc(S(=O)(=O)N3CCN(Cc4cncn4[C@H](C)c4ccc(F)cc4)CC3)s2)C[C@@H]2C[C@@H](O)CN12 (stereo partly shown) [Compound 23],1.6 nM
11,CN1CCN(c2ncc(S(=O)(=O)N3CCN(Cc4cncn4CCOc4ccc(F)cn4)CC3)s2)CC1 [Compound 33],2.3 nM
12,C[C@H](c1ccc(F)cc1)n1cncc1CN1CCN(S(=O)(=O)c2ccc(N3CCNCC3)cn2)CC1 [Compound 28],4.4 nM
13,C[C@H](c1ccc(F)cc1)n1cncc1CN1CCN(S(=O)(=O)c2cnc(N3CCNCC3)cn2)CC1 [Compound 30],3.6 nM
14,"C[C@H](c1ccc(F)cc1)n1cncc1C1CC12CCN(S(=O)(=O)c1cnc(N3CCN(C)CC3)s1)CC2 (single isomer, unassigned) [Compound 43b]",2 nM
15,C[C@H](c1ccc(C#N)cc1)n1cncc1CN1CCN(S(=O)(=O)c2cnc(Nc3ccc(C(F)(F)F)cn3)s2)CC1 [Compound 4],< 0.1 nM
16,C[C@H](c1ccc(F)cc1)n1cncc1CN1CCN(S(=O)(=O)c2cnc(N3CCC(S(C)(=O)=O)C3)s2)CC1 (stereo partly shown) [Compound 8],1.8 nM
17,C[C@H](c1ccc(F)cc1)n1cncc1CC1(CO)CCN(S(=O)(=O)c2cnc(N3CCN(C)CC3)s2)CC1 [Compound 47],13 nM
18,C[C@H](c1ccc(F)cc1)n1cncc1CN1CCN(S(=O)(=O)c2cnc(N3CC(=O)N4C[C@H](O)C[C@H]4C3)s2)CC1 [Compound 16],5.2 nM
19,Cc1ccc(C2(n3cncc3CN3CCN(S(=O)(=O)c4cnc(N5CCN(C)CC5)s4)CC3)CC2)nc1 [Compound 31],4.4 nM
20,C[C@H](c1ccc(F)cc1)n1cncc1CN1CCN(S(=O)(=O)c2cnc(N3CCN4CCC(O)[C@H]4C3)s2)CC1 (stereo partly shown) [Compound 27],2.6 nM

row,SMILES,IC50
1,C[C@H](c1ccc(F)cc1)n1cncc1CN1CCN(S(=O)(=O)c2cnc(N3CCN4C[C@H](O)CC4(C)C3)s2)CC1 (stereo partly shown) [Compound 24],1.9 nM
2,C[C@H](c1ccc(F)cc1)n1cncc1CN1CCN(S(=O)(=O)c2cncc(N3CCNCC3)c2)CC1 [Compound 29],2.9 nM
3,C[C@H](c1ccc(F)cc1)n1cncc1CC1(C#N)CCN(S(=O)(=O)c2cnc(N3CCN(C)CC3)s2)CC1 [Compound 48],9.4 nM
4,C[C@H](c1ccc(F)cc1)n1cncc1CN1CCN(S(=O)(=O)c2cnc(N3CC[C@@H](N4CCOCC4)[C@H](F)C3)s2)CC1 [Compound 20],4.1 nM
5,C[C@H](c1ccc(F)cc1)n1cncc1CN1CCN(S(=O)(=O)c2cnc(N3CCN4C[C@H](O)CC[C@H]4C3)s2)CC1 [Compound 19],1.7 nM
6,C[C@H](c1ccc(F)cc1)n1cnnc1CN1CCN(S(=O)(=O)c2cnc(N3CCN4C[C@H](O)C[C@H]4C3)s2)CC1 [Compound 42],32 nM
7,C[C@H](c1ccc(F)cc1)n1cncc1CN1CCN(S(=O)(=O)c2cnc(N3CCC(N)(CO)CC3)s2)CC1 [Compound 25],1.9 nM
8,C[C@H](c1ccc(F)cc1)n1cncc1CC1CCN(S(=O)(=O)c2cnc(N3CCN(C)CC3)s2)CC1 [Compound 44],1.1 nM
9,C[C@H](c1ccc(F)cc1)n1cncc1CN1CCN(S(=O)(=O)c2cnc(N3CCN(C)CC3)s2)CC1 [Compound 2],1 nM
10,C[C@H](c1ccc(F)cc1)n1cncc1CN1CCN(S(=O)(=O)c2cnc(N3CCC(S(C)(=O)=O)C3)s2)CC1 (stereo partly shown) [Compound 7],1.7 nM
11,CN1CCN(c2ncc(S(=O)(=O)N3CCN(Cc4cncn4CCOc4ccc(Cl)cc4)CC3)s2)CC1 [Compound 32],1.2 nM
12,C[C@H](c1ccc(F)cc1)n1cncc1CN1CCN(S(=O)(=O)c2cnc(N3CCC4(CC3)CNC(=O)N4)s2)CC1 [Compound 3],2.7 nM
13,CC(c1cncn1[C@H](C)c1ccc(F)cc1)N1CCN(S(=O)(=O)c2cnc(N3CCN4C[C@H](O)C[C@H]4C3)s2)CC1 (stereo partly shown) [Compound 37],4.1 nM
14,C[C@H](c1ccc(F)cc1)n1cncc1CN1CCN(S(=O)(=O)c2cnc(N3CCN4C[C@H](O)C[C@H]4C3)s2)CC1 [Compound 5],3.8 nM
15,C[C@H](c1ccc(F)cc1)n1cncc1CN1CCN(S(=O)(=O)c2cnc(N3CC[C@@H]4NCCO[C@H]4C3)s2)CC1 [Compound 15],1.2 nM
16,C[C@H](c1ccc(F)cc1)n1cncc1C1CN(C)CC2CN(S(=O)(=O)c3cnc(Nc4ccccn4)s3)CCN21 (stereo partly shown) [Compound 41],2.1 nM
17,C[C@H](c1ccc(F)cc1)n1cncc1C1COCC2CN(S(=O)(=O)c3cnc(Nc4ccccn4)s3)CCN21 (stereo partly shown) [Compound 40],0.8 nM
18,"C[C@H](c1ccc(F)cc1)n1cncc1C1CC12CCN(S(=O)(=O)c1cnc(N3CCN(C)CC3)s1)CC2 (single isomer, unassigned) [Compound 43a]",6 nM
19,C[C@H](c1ccc(F)cc1)n1cncc1CN1CCN(S(=O)(=O)c2cnc(N3C[C@@H]4C[C@@H](O)CN4C[C@@H]3C)s2)CC1 [Compound 21],1.9 nM
